In ChEMBL document CHEMBL1201862, “PubChem BioAssay data set” (2004):
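Five compound concentrations were applied to cells in 96-well plates for 48 hours; endpoints were derived by simple linear interpolation of the resulting dose-response curve. At the GI50, growth is halved.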 Calls of active or inactive are those of the source. Cut-off read from the data, not from the text of the source: active = GI50 up to about 1.1 µM and inactive = higher.

Legend:
Assay in all cases: DTP human tumour cell line panel, 48 h
M19-MEL = system: M19-MEL
HOP-18 = system: HOP-18
SK-OV-3 = system: SK-OV-3
NCI-H23 = system: NCI-H23
NCI-H226 = system: NCI-H226
CAKI-1 = system: CAKI-1
DMS-273 = system: DMS-273
SNB-78 = system: SNB-78
OVCAR-3 = system: OVCAR-3
DMS-114 = system: DMS-114
OVCAR-8 = system: OVCAR-8
NCI-H522 = system: NCI-H522
M14 = system: M14
SF-539 = system: SF-539
SK-MEL-5 = system: SK-MEL-5
786-0 = system: 786-0
LOX IMVI = system: LOX IMVI
OVCAR-4 = system: OVCAR-4
LXFL 529 = system: LXFL 529
COLO 205 = system: COLO 205
SW-620 = system: SW-620
HOP-62 = system: HOP-62
TK-10 = system: TK-10
NCI-H460 = system: NCI-H460
HCC 2998 = system: HCC 2998
SR = system: SR
OVCAR-5 = system: OVCAR-5
IGROV-1 = system: IGROV-1
U-251 = system: U-251
MOLT-4 = system: MOLT-4
KM12 = system: KM12
KM-20L2 = system: KM-20L2
RPMI-8226 = system: RPMI-8226
SK-MEL-28 = system: SK-MEL-28
SF-268 = system: SF-268
UACC-257 = system: UACC-257
RXF 393 = system: RXF 393
CCRF-CEM = system: CCRF-CEM
HT-29 = system: HT-29
UACC-62 = system: UACC-62
DLD-1 = system: DLD-1
A549 = system: A549
SN12C = system: SN12C
SNB-75 = system: SNB-75
HCT-116 = system: HCT-116
SK-MEL-2 = system: SK-MEL-2
HCT-15 = system: HCT-15
A498 = system: A498
K562 = system: K562
SF-295 = system: SF-295
ACHN = system: ACHN
UO-31 = system: UO-31
HOP-92 = system: HOP-92
Malme-3M = system: Malme-3M
SNB-19 = system: SNB-19
EKVX = system: EKVX
HL-60 = system: HL-60

c1ccc2c(C3NCCc4nc[nH]c43)cccc2c1 (stereo not drawn)
GI50 (M19-MEL): > 100 µM (inactive) | GI50 (HOP-18): > 100 µM (inactive) | GI50 (SK-OV-3): > 100 µM (inactive) | GI50 (NCI-H23): > 100 µM (inactive) | GI50 (NCI-H226): > 100 µM (inactive) | GI50 (CAKI-1): > 100 µM (inactive) | GI50 (DMS-273): > 100 µM (inactive) | GI50 (SNB-78): > 100 µM (inactive) | GI50 (OVCAR-3): > 100 µM (inactive) | GI50 (DMS-114): > 100 µM (inactive) | GI50 (OVCAR-8): > 100 µM (inactive) | GI50 (NCI-H522): 98.4 µM (inactive) | GI50 (M14): > 100 µM (inactive) | GI50 (SF-539): > 100 µM (inactive) | GI50 (SK-MEL-5): > 100 µM (inactive) | GI50 (786-0): > 100 µM (inactive) | GI50 (LOX IMVI): > 100 µM (inactive) | GI50 (OVCAR-4): > 100 µM (inactive) | GI50 (LXFL 529): > 100 µM (inactive) | GI50 (COLO 205): > 100 µM (inactive) | GI50 (SW-620): > 100 µM (inactive) | GI50 (HOP-62): > 100 µM (inactive) | GI50 (TK-10): > 100 µM (inactive) | GI50 (NCI-H460): > 100 µM (inactive) | GI50 (HCC 2998): > 100 µM (inactive) | GI50 (SR): > 100 µM (inactive) | GI50 (OVCAR-5): > 100 µM (inactive) | GI50 (IGROV-1): > 100 µM (inactive) | GI50 (U-251): > 100 µM (inactive) | GI50 (MOLT-4): > 100 µM (inactive) | GI50 (KM12): > 100 µM (inactive) | GI50 (KM-20L2): > 100 µM (inactive) | GI50 (RPMI-8226): > 100 µM (inactive) | GI50 (SK-MEL-28): > 100 µM (inactive) | GI50 (SF-268): > 100 µM (inactive) | GI50 (UACC-257): > 100 µM (inactive) | GI50 (RXF 393): > 100 µM (inactive) | GI50 (CCRF-CEM): > 100 µM (inactive) | GI50 (HT-29): > 100 µM (inactive) | GI50 (UACC-62): > 100 µM (inactive) | GI50 (DLD-1): > 100 µM (inactive) | GI50 (A549): > 100 µM (inactive) | GI50 (SN12C): > 100 µM (inactive) | GI50 (SNB-75): > 100 µM (inactive) | GI50 (HCT-116): > 100 µM (inactive) | GI50 (SK-MEL-2): > 100 µM (inactive) | GI50 (HCT-15): > 100 µM | GI50 (A498): > 100 µM (inactive) | GI50 (K562): > 100 µM (inactive) | GI50 (SF-295): > 100 µM (inactive) | GI50 (ACHN): > 100 µM (inactive) | GI50 (UO-31): > 100 µM (inactive) | GI50 (HOP-92): > 100 µM (inactive)

CC1CC2C3CCC4=CC(=O)C=CC4(C)C3(F)C(O)CC2(C)C1(O)C(=O)CO.Cc1cc(NS(=O)(=O)c2ccc(/N=N\c3cc(/N=N/c4ccc(S(=O)(=O)Nc5cc(C)nc(C)n5)cc4)c(OC(=O)C(Cl)Cl)c4cccc(NC(=O)C(Cl)Cl)c34)cc2)nc(C)n1
GI50 (M19-MEL): 30.8 µM (inactive) | GI50 (Malme-3M): 20.6 µM (inactive) | GI50 (HOP-18): 18.8 µM (inactive) | GI50 (SK-OV-3): > 100 µM (inactive) | GI50 (SNB-19): 16.5 µM (inactive) | GI50 (NCI-H23): 30.3 µM (inactive) | GI50 (NCI-H226): 22.2 µM (inactive) | GI50 (CAKI-1): 31.2 µM (inactive) | GI50 (DMS-273): 21.5 µM (inactive) | GI50 (SNB-78): 33.1 µM (inactive) | GI50 (OVCAR-3): 18.6 µM (inactive) | GI50 (DMS-114): 27.5 µM (inactive) | GI50 (OVCAR-8): 22.9 µM (inactive) | GI50 (NCI-H522): 15 µM (inactive) | GI50 (M14): 28.9 µM (inactive) | GI50 (SF-539): 20.9 µM (inactive) | GI50 (SK-MEL-5): 2.97 µM (inactive) | GI50 (786-0): 18 µM (inactive) | GI50 (LOX IMVI): 19.2 µM (inactive) | GI50 (OVCAR-4): 19.8 µM (inactive) | GI50 (LXFL 529): 10 µM (inactive) | GI50 (COLO 205): 28.2 µM (inactive) | GI50 (SW-620): 20.8 µM (inactive) | GI50 (HOP-62): 35.2 µM (inactive) | GI50 (TK-10): 42.7 µM (inactive) | GI50 (NCI-H460): 25.9 µM (inactive) | GI50 (HCC 2998): 18.4 µM (inactive) | GI50 (SR): 25.4 µM (inactive) | GI50 (OVCAR-5): 16.6 µM (inactive) | GI50 (EKVX): 26.2 µM (inactive) | GI50 (IGROV-1): 24.5 µM (inactive) | GI50 (U-251): 18 µM (inactive) | GI50 (MOLT-4): 27.4 µM (inactive) | GI50 (KM12): 16.6 µM (inactive) | GI50 (KM-20L2): 25.6 µM (inactive) | GI50 (HL-60): 16 µM (inactive) | GI50 (SK-MEL-28): 27 µM (inactive) | GI50 (SF-268): 26.4 µM (inactive) | GI50 (UACC-257): 29.9 µM (inactive) | GI50 (RXF 393): 23.9 µM (inactive) | GI50 (HT-29): 24.4 µM (inactive) | GI50 (UACC-62): 23.9 µM (inactive) | GI50 (DLD-1): 18 µM (inactive) | GI50 (A549): 27 µM (inactive) | GI50 (SN12C): 12.6 µM (inactive) | GI50 (SNB-75): 42.8 µM (inactive) | GI50 (HCT-116): 34.3 µM (inactive) | GI50 (SK-MEL-2): 29.4 µM (inactive) | GI50 (HCT-15): 15.6 µM | GI50 (A498): 27.5 µM (inactive) | GI50 (K562): 30.6 µM (inactive) | GI50 (SF-295): 28.2 µM (inactive) | GI50 (ACHN): 19.5 µM (inactive) | GI50 (UO-31): 19.8 µM (inactive) | GI50 (HOP-92): 32.5 µM (inactive)
